Reference: patent US20250144067A1, “PERSONALIZED STARVATION THERAPY FOR CANCER” (Faeth Therapeutics, Inc., priority 2021, published 2025)
Counter-ions that a name gives are not always drawn. Like-named read-outs stand apart in the source and are kept apart here.

Tests used:
[1] = test system: NCI-H292 lung cancer cells; assay: FDA drug screening, complete media vs cholesterol-free media without statin (TABLE 1); assay type: cell-based, human
[2] = test system: NCI-H292 lung cancer cells; assay: FDA drug screening, complete media vs cholesterol-free media with simvastatin (TABLE 2); assay type: cell-based, human
[3] = Complete minus Cholesterol-free, >0 enhanced anti-cancer activity, about 0 neutral, <0 antagonist
[4] = NCI-H292 cells, cholesterol-free media without statin
[5] = NCI-H292 cells, FDA drug library screen, cholesterol-free media with simvastatin 0.04 μM
[6] = NCI-H292 cells, FDA drug library screen, complete media
[7] = complete media vs cholesterol-free media + simvastatin (0.04 μM), >0 enhanced anti-cancer activity, about 0 neutral, <0 antagonist
[8] = complete vs cholesterol-free media, greater than 0 enhanced anti-cancer activity, about 0 neutral, below 0 antagonists
[9] = NCI-H292 cells, cholesterol-free media with simvastatin 0.04 μM, FDA drug library screen (TABLE 2)
[10] = NCI-H292 cells, complete media, FDA drug library screen (TABLE 2)
[11] = complete media minus cholesterol-free media + simvastatin (0.04 μM), >0 enhanced anti-cancer activity, about 0 neutral, <0 antagonist
[12] = Complete minus Cholesterol-free, […]
[13] = NCI-H292 cells in cholesterol-free media without statin
[14] = NCI-H292 cells in complete media
[15] = NCI-H292 cells, cholesterol-free media with simvastatin 0.04 μM, […]
[16] = NCI-H292 cells, complete media, […]
[17] = complete media minus cholesterol-free media + simvastatin, […]
[18] = NCI-H292 cells, cholesterol-free media with simvastatin 0.04 μM, cell growth value in FDA drug screen
[19] = NCI-H292 cells, complete media, cell growth value in FDA drug screen
[20] = complete media minus cholesterol-free media + simvastatin, >0 enhanced anti-cancer activity, about 0 neutral, <0 antagonist
[21] = NCI-H292 cells, drug in cholesterol-free media with simvastatin 0.04 μM
[22] = NCI-H292 cells, drug in complete media
[23] = complete media vs cholesterol-free media + simvastatin (0.04 μM), […]
[24] = Complete minus Cholesterol-free, greater than 0 enhanced anti-cancer activity, about 0 neutral, below 0 antagonist
[25] = NCI-H292 cells, FDA drug library screen, cholesterol-free media without statin
[26] = NCI-H292 cells, FDA library drug in cholesterol-free media with simvastatin 0.04 μM
[27] = NCI-H292 cells, FDA library drug in complete media
[28] = Complete minus Cholesterol-free, greater than 0 enhanced anti-cancer activity, about 0 neutral, below 0 antagonists
[29] = NCI-H292 cells, cholesterol-free media without statin, FDA drug library screen
[30] = NCI-H292 cells, complete media, FDA drug library screen
[31] = complete vs cholesterol-free media, >0 enhanced anti-cancer activity, about 0 neutral, <0 antagonist

C=CC(=O)Nc1cc(Nc2nccc(-c3cn(C4CC4)c4ccccc34)n2)c(OC)cc1N(C)CCN(C)C [Almonertinib]
Difference [1, 3]: −0.19 | Cholesterol-free [1, 4]: 0.4646 | Complete ([1]; NCI-H292 cells, complete media): 0.2735 | Cholesterol-free media + simvastatin (0.04 μM) [2, 5]: 0.4298 | Complete Media [2, 6]: 0.2855 | Difference [2, 7]: −0.14

Cc1c(O)c(=O)ccn1C [Deferiprone]
Cholesterol-free [1, 4]: 1.443 | Complete ([1]; NCI-H292 cells, complete media): 1.044 | Difference [1, 8]: −0.40 | Cholesterol-free media + simvastatin (0.04 μM) [2, 9]: 1.047 | Complete Media [2, 10]: 1.061 | Difference [2, 11]: 0.01

CCN(C)C(=O)Oc1cccc([C@H](C)N(C)C)c1 [Rivastigmine]
Difference [1, 12]: −0.61 | Cholesterol-free [1, 13]: 1.742 | Complete [1, 14]: 1.133 | Cholesterol-free media + simvastatin (0.04 μM) [2, 15]: 1.229 | Complete Media [2, 16]: 1.345 | Difference [2, 17]: 0.12

Cc1noc(NS(=O)(=O)c2ccc(N)cc2)c1C [Sulfisoxazole]
Cholesterol-free [1, 4]: 1.273 | Complete ([1]; NCI-H292 cells, complete media): 0.8703 | Difference [1, 8]: −0.40 | Cholesterol-free media + simvastatin (0.04 μM) [2, 5]: 1.12 | Complete Media [2, 6]: 1.045 | Difference [2, 7]: −0.08

Cc1ccc(-c2cc(C(F)(F)F)nn2-c2ccc(S(N)(=O)=O)cc2)cc1 [Celecoxib]
Cholesterol-free [1, 4]: 1.362 | Complete ([1]; NCI-H292 cells, complete media): 0.9472 | Difference [1, 8]: −0.42 | Cholesterol-free media + simvastatin (0.04 μM) [2, 18]: 1.271 | Complete Media [2, 19]: 1.302 | Difference [2, 20]: 0.03

Fesoterodine (fumarate)
Difference [1, 12]: −0.24 | Cholesterol-free [1, 4]: 1.247 | Complete ([1]; NCI-H292 cells, complete media): 1.003 | Cholesterol-free media + simvastatin (0.04 μM) [2, 5]: 0.9771 | Complete Media [2, 6]: 1.278 | Difference [2, 17]: 0.30

Valemetostat (tosylate)
Cholesterol-free [1, 4]: 1.464 | Complete ([1]; NCI-H292 cells, complete media): 1.052 | Difference ([1]; complete vs cholesterol-free media, […]): −0.41 | Cholesterol-free media + simvastatin (0.04 μM) [2, 21]: 1.195 | Complete Media [2, 22]: 0.9379 | Difference [2, 23]: −0.26

Nc1ccn([C@@H]2O[C@H](CO)[C@@H](O)[C@H]2O)c(=O)n1 [Cytidine]
Difference [1, 3]: −0.23 | Cholesterol-free [1, 4]: 1.318 | Complete ([1]; NCI-H292 cells, complete media): 1.09 | Cholesterol-free media + simvastatin (0.04 μM) [2, 21]: 1.411 | Complete Media [2, 22]: 1.221 | Difference [2, 7]: −0.19

O=C(NC1CCN(CCCCC2(C(=O)NCC(F)(F)F)c3ccccc3-c3ccccc32)CC1)c1ccccc1-c1ccc(C(F)(F)F)cc1 [Lomitapide]
Difference [1, 3]: −0.25 | Cholesterol-free [1, 4]: 0.9551 | Complete ([1]; NCI-H292 cells, complete media): 0.7097 | Cholesterol-free media + simvastatin (0.04 μM) [2, 21]: 1.325 | Complete Media [2, 22]: 1.07 | Difference [2, 7]: −0.25

CC(=O)OC(C)C[N+](C)(C)C.[Cl-] (stereo not shown) [Methacholine (chloride)]
Difference [1, 24]: −0.15 | Cholesterol-free [1, 25]: 1.05 | Complete [1, 6]: 0.8971 | Cholesterol-free media + simvastatin (0.04 μM) [2, 9]: 1.245 | Complete Media [2, 10]: 1.195 | Difference [2, 11]: −0.05

NC(N)=Nc1nc(CSCCC(N)=NS(N)(=O)=O)cs1 [Famotidine]
Difference [1, 24]: −0.07 | Cholesterol-free [1, 25]: 1.016 | Complete [1, 6]: 0.9424 | Cholesterol-free media + simvastatin (0.04 μM) [2, 26]: 1.666 | Complete Media [2, 27]: 1.298 | Difference [2, 7]: −0.37

C[C@](N)(Cc1ccc(O)cc1)C(=O)O [Metyrosine]
Difference [1, 24]: −0.10 | Cholesterol-free [1, 25]: 1.606 | Complete [1, 6]: 1.504 | Cholesterol-free media + simvastatin (0.04 μM) [2, 9]: 0.9769 | Complete Media [2, 10]: 0.9769 | Difference [2, 11]: 0.00

O=C1NC(c2ccccc2)(c2ccccc2)C(=O)N1COP(=O)(O)O [Fosphenytoin (disodium)]
Difference [1, 28]: −1.22 | Cholesterol-free [1, 13]: 2.489 | Complete [1, 14]: 1.268 | Cholesterol-free media + simvastatin (0.04 μM) [2, 26]: 1.806 | Complete Media [2, 27]: 1.233 | Difference [2, 7]: −0.57

Nc1cccc2c1CN(C1CCC(=O)NC1=O)C2=O (stereo not shown) [Lenalidomide (hemihydrate)]
Difference [1, 3]: −0.19 | Cholesterol-free [1, 4]: 1.181 | Complete ([1]; NCI-H292 cells, complete media): 0.9861 | Cholesterol-free media + simvastatin (0.04 μM) [2, 26]: 1.432 | Complete Media [2, 27]: 1.135 | Difference [2, 7]: −0.30

Cc1ncc([N+](=O)[O-])n1CC(C)O (stereo not shown) [Secnidazole]
Cholesterol-free [1, 29]: 1.105 | Complete [1, 30]: 1.528 | Difference [1, 31]: 0.42 | Cholesterol-free media + simvastatin (0.04 μM) [2, 9]: 1.474 | Complete Media [2, 10]: 1.409 | Difference [2, 11]: −0.07

COc1cc(C)c(/C=C/C(C)=C/C=C/C(C)=C/C(=O)O)c(C)c1C [Acitretin]
Difference [1, 12]: −0.08 | Cholesterol-free [1, 25]: 0.8064 | Complete [1, 6]: 0.7285 | Cholesterol-free media + simvastatin (0.04 μM) [2, 15]: 0.7241 | Complete Media [2, 16]: 0.76 | Difference [2, 17]: 0.04

OCc1cc(C(O)CNCCCCCCOCCCCc2ccccc2)ccc1O (stereo not shown) [Salmeterol (xinafoate)]
Cholesterol-free [1, 4]: 1.696 | Complete ([1]; NCI-H292 cells, complete media): 1.368 | Difference [1, 8]: −0.33 | Cholesterol-free media + simvastatin (0.04 μM) [2, 5]: 0.9341 | Complete Media [2, 6]: 1.186 | Difference [2, 20]: 0.25

COCCCOc1cc(C[C@@H](C[C@H](N)[C@@H](O)C[C@H](C(=O)NCC(C)(C)C(N)=O)C(C)C)C(C)C)ccc1OC [Aliskiren]
Difference [1, 28]: −0.67 | Cholesterol-free [1, 13]: 1.754 | Complete [1, 14]: 1.084 | Cholesterol-free media + simvastatin (0.04 μM) [2, 26]: 1.326 | Complete Media [2, 27]: 0.8268 | Difference [2, 7]: −0.50

CCCC(=O)O[C@]1(C(=O)CO)CC[C@H]2[C@@H]3CCC4=CC(=O)CC[C@]4(C)[C@H]3[C@@H](O)C[C@@]21C [Hydrocortisone 17-butyrate]
Difference [1, 3]: −0.03 | Cholesterol-free [1, 29]: 1.162 | Complete [1, 30]: 1.133 | Cholesterol-free media + simvastatin (0.04 μM) [2, 5]: 0.4747 | Complete Media [2, 6]: 0.6696 | Difference [2, 20]: 0.19

C[C@@H](O)[C@H]1C(=O)N2C(C(=O)O)=C(S[C@@H]3CN[C@H](CNS(N)(=O)=O)C3)[C@H](C)[C@H]12 [Doripenem (monohydrate)]
Difference [1, 3]: −0.25 | Cholesterol-free [1, 4]: 1.011 | Complete ([1]; NCI-H292 cells, complete media): 0.7618 | Cholesterol-free media + simvastatin (0.04 μM) [2, 5]: 0.9911 | Complete Media [2, 6]: 0.8363 | Difference [2, 7]: −0.15

Bephenium (hydroxynaphthoate)
Complete ([1]; NCI-H292 cells, complete media): 0.7234 | Difference [1, 8]: −0.43 | Cholesterol-free media + simvastatin (0.04 μM) [2, 21]: 1.634 | Complete Media [2, 22]: 1.472 | Difference [2, 7]: −0.16

COc1ccc(NC(=O)c2ccc(C(=N)N(C)C)cc2)c(C(=O)Nc2ccc(Cl)cn2)c1 [Betrixaban]
Cholesterol-free [1, 29]: 0.6104 | Complete [1, 30]: 1.062 | Difference [1, 31]: 0.45 | Cholesterol-free media + simvastatin (0.04 μM) [2, 26]: 1.424 | Complete Media [2, 27]: 0.7486 | Difference [2, 7]: −0.68

C[C@]12CCC(=O)C=C1CC[C@@H]1[C@@H]2[C@@H](O)C[C@@]2(C)[C@H]1CC[C@]2(O)C(=O)CO [Hydrocortisone]
Cholesterol-free [1, 29]: 0.8914 | Complete [1, 30]: 1.03 | Difference [1, 31]: 0.14 | Cholesterol-free media + simvastatin (0.04 μM) [2, 18]: 0.4287 | Complete Media [2, 19]: 0.4959 | Difference [2, 20]: 0.07

CN(C)CCCN1c2ccccc2Sc2ccc(C(F)(F)F)cc21 [Triflupromazine (hydrochloride)]
Cholesterol-free [1]: 0.9938 | Complete [1]: 0.8066 | Difference [1]: −0.19 | Cholesterol-free media + simvastatin (0.04 μM) [2]: 0.02542 | Complete Media [2]: 1.475 | Difference [2]: 1.45

O=C1C(O)=C([C@H]2CC[C@H](c3ccc(Cl)cc3)CC2)C(=O)c2ccccc21 [Atovaquone]
Cholesterol-free [1, 29]: 0.9543 | Complete [1, 30]: 1.102 | Difference [1, 31]: 0.15 | Cholesterol-free media + simvastatin (0.04 μM) [2, 5]: 1.327 | Complete Media [2, 6]: 1.493 | Difference [2, 20]: 0.17

CC(C)=CCC/C(C)=C/CC/C(C)=C/CC/C=C(\C)CC/C=C(\C)CCC=C(C)C [Squalene]
Cholesterol-free [1, 29]: 1.273 | Complete [1, 30]: 1.566 | Difference [1, 31]: 0.29 | Cholesterol-free media + simvastatin (0.04 μM) [2, 21]: 0.9877 | Complete Media [2, 22]: 0.7931 | Difference [2, 7]: −0.19

C[C@H]1Oc2cc(cnc2N)-c2c(nn(C)c2C#N)CN(C)C(=O)c2ccc(F)cc21 [Lorlatinib]
Cholesterol-free [1, 4]: 1.143 | Complete ([1]; NCI-H292 cells, complete media): 0.8052 | Difference [1, 8]: −0.34 | Cholesterol-free media + simvastatin (0.04 μM) [2, 5]: 0.9476 | Difference [2, 20]: 0.20

Ketotifen (fumarate)
Difference [1, 12]: −0.71 | Cholesterol-free [1, 13]: 1.545 | Complete [1, 14]: 0.8394 | Cholesterol-free media + simvastatin (0.04 μM) [2, 26]: 1.876 | Complete Media [2, 27]: 1.552 | Difference [2, 23]: −0.32

CC(C[N+](C)(C)C)OC(N)=O.[Cl-] (stereo not shown) [Bethanechol (chloride)]
Cholesterol-free [1, 29]: 1.24 | Complete [1, 30]: 1.407 | Difference [1, 31]: 0.17 | Cholesterol-free media + simvastatin (0.04 μM) [2, 26]: 1.34 | Complete Media [2, 27]: 0.9882 | Difference [2, 7]: −0.35
